Source: patent US6462055B2, “Alpha-methylbenzyl-containing thiourea inhibitors of herpes viruses containing a phenylenediamine group” (Wyeth, priority 1998, dated 2002)
Values after ≈ are worked out from the molar mass of the structure shown.

Key:
HSV-1 = experiment: HSV Antiviral (ELISA) Assay in Vero cells; assay type: cell-based, herpes simplex virus type 1; details: HSV-1, Vero cells; for IC50: Human alphaherpesvirus 1, read-out: IC50 (ug/ml) HSV
Procedure: Vero cells (ATCC #CCL-81) are plated on 96-well tissue culture plates at 3.5×10^4 cells per 100 μl tissue culture DMEM (Dulbeccos modified Eagle media) supplemented with 2% fetal bovine serum (FBS) in each well. After overnight incubation @ 37° C. (in 5% CO2) and 30 minutes prior to infection with HSV-1 (multiplicity of infection equal to 0.006), cells are either untreated, or treated with test compound (multiple concentrations) or reference standard drug control. After approximately 24 hours post-infection incubation @ 37° C. (in 5% CO2), cells are fixed for ELISA assay. The primary antibody is murine anti-HSV glycoprotein D monoclonal primary antibody and the secondary antibody is goat anti-mouse IgG linked to β-galactosidase. Thus the extent of viral replication is determined by assessing β-galactosidase activity by quantifying the generation of the 4-methyl umbelliferone fluorescent cleavage product after addition of the methyl umbelliferyl-β-D-galactoside (Sigma #M1633) substrate on a microfluorimeter (365 nm for excitation and 450 nm for emission). Antiviral activity (IC50) of the test compound is determined by comparing the flourescence obtained in absence of compound to that obtained in the presence of compound.

VZV strain Ellen = experiment: VZV Antiviral (ELISA) Assay in human foreskin fibroblast cells; assay type: cell-based, varicella-zoster virus; details: for IC50 / inhibition at 10 µg/mL: Human alphaherpesvirus 3, Fibroblast; for IC50: read-out: IC50 (ug/ml) VZV; for inhibition at 10 µg/mL: read-out: % inhibition 10 ug/ml VZV, 10 ug/ml
Procedure: For the generation of stock VZV to be used in the assay, VZV strain Ellen (ATCC #VR-1367) is used to infect human foreskin fibroblast (HFF) cells at low multiplicity (less than 0.1) and incubated overnight at 37° C. in 5% CO2. After the overnight incubation, the mixture of uninfected and VZV-infected HFF infected cells are then harvested and added to each well of 96-well plates (3.5×10^4 cells in 100 μl DMEM supplemented with 2% FBS) which contain test compound or the reference standard drug control (in 100 μl DMEM supplemented with 2% FBS per well). These cells are incubated for three days at 37° C. in 5% CO2, then fixed for ELISA assay. The primary antibody is murine anti-VZV glycoprotein II monoclonal antibody (Applied Biosystems, Inc. #13-145-100) and the secondary antibody is goat anti-mouse IgG linked to β-galactosidase. Thus the extent of viral replication is determined by assessing β-galactosidase activity by quantifying the generation of the 4-methyl umbelliferone fluorescent cleavage product after addition of the methyl umbelliferyl-β-D-galactoside (Sigma #M1633) substrate on a microfluorimeter (365 nm for excitation and 450 nm for emission). Antiviral activity (IC50) of the test compound is determined by comparing the flourescence obtained in absence of compound to that obtained in the presence of compound.

Compound	IC50 (ug/ml) VZV (VZV strain Ellen) [µg/mL]	IC50 (VZV strain Ellen) [µg/mL]	other results
COc1cc(OC)c(NC(=S)Nc2ccc(NC(=O)c3cccc(N(C)C)c3)cc2)cc1Cl [Example 136]	>10	–	IC50 (ug/ml) HSV (HSV-1): 1 µg/mL (≈ 2.06 µM); % inhibition 10 ug/ml VZV (VZV strain Ellen): 40%
COc1cc(OC)c(NC(=S)Nc2ccc(NC(=O)c3cccc(NS(C)(=O)=O)c3)cc2)cc1Cl [Example 137]	>15	–	% inhibition 10 ug/ml VZV (VZV strain Ellen): 72%
COc1cc(OC)c(NC(=S)Nc2ccc(NC(=O)c3ccc4ccccc4c3)cc2)cc1Cl [Example 156]	>10	–	IC50 (ug/ml) HSV (HSV-1): 2 µg/mL (≈ 4.07 µM); % inhibition 10 ug/ml VZV (VZV strain Ellen): 17%
COc1cc(OC)c(NC(=S)Nc2ccc(NC(=O)c3ccccc3-c3ccccc3)cc2)cc1Cl [Example 182]	>10	–	% inhibition 10 ug/ml VZV (VZV strain Ellen): 32%
COc1cc(OC)c(NC(=S)Nc2ccc(NC(=O)c3ccccc3CO)cc2)cc1Cl [Example 185]	>10	–	IC50 (ug/ml) HSV (HSV-1): 3 µg/mL (≈ 6.36 µM); % inhibition 10 ug/ml VZV (VZV strain Ellen): 32%
CC(=O)Nc1ccc(NC(=S)Nc2ccc(NC(=O)c3ccccc3F)cc2)cc1Cl [Example 397]	>10	–	IC50 (ug/ml) HSV (HSV-1): 5 µg/mL (≈ 10.9 µM); % inhibition 10 ug/ml VZV (VZV strain Ellen): 35%
Cc1cccc(NC(=S)Nc2ccc(NC(=O)c3ccccc3F)cc2)c1 [Example 432]	>10	–	IC50 (ug/ml) HSV (HSV-1): 1.6 µg/mL (≈ 4.22 µM); % inhibition 10 ug/ml VZV (VZV strain Ellen): 0%
COc1cccc(NC(=S)Nc2ccc(NC(=O)c3ccccc3F)cc2)c1 [Example 487]	>10	–	IC50 (ug/ml) HSV (HSV-1): 4 µg/mL (≈ 10.1 µM); % inhibition 10 ug/ml VZV (VZV strain Ellen): 48%
O=C(Nc1ccc(NC(=S)Nc2ccc3[nH]cnc3c2)cc1)c1ccccc1F [Example 496]	>10	–	IC50 (ug/ml) HSV (HSV-1): >10 µg/mL; % inhibition 10 ug/ml VZV (VZV strain Ellen): 25%
Cc1nc2cc(NC(=S)Nc3ccc(NC(=O)c4ccccc4F)cc3)ccc2[nH]1 [Example 497]	>10	–	IC50 (ug/ml) HSV (HSV-1): >10 µg/mL; % inhibition 10 ug/ml VZV (VZV strain Ellen): 10%
CCC(C)Cc1cc(NC(=S)Nc2ccc(NC(=O)c3ccccc3F)cc2)cc(C(F)(F)F)c1 (stereo not shown) [Example 577]	>7.5	–	–
CC(C)Cc1cc(NC(=S)Nc2ccc(NC(=O)c3ccccc3F)cc2)cc(C(F)(F)F)c1 [Example 578]	>10	–	–
O=C(Nc1ccc(NC(=S)NCc2cc(F)cc(F)c2)cc1)c1ccccc1F [Example 580]	>10	–	–
O=C(Nc1ccc(NC(=S)NCc2cc(Cl)cc(Cl)c2)cc1)c1ccccc1F [Example 583]	10 (≈ 22.3 µM)	–	–
O=C(Nc1ccc(NC(=S)NCc2cc(F)cc(C(F)(F)F)c2)cc1)c1ccccc1F [Example 586]	–	> 10	–
O=C(Nc1ccc(NC(=S)NCc2ccc(N3CCCCC3)c(C(F)(F)F)c2)cc1)c1ccccc1F [Example 616]	>10	–	–
O=C(Nc1ccc(NC(=S)NCc2ccc(F)c(C(F)(F)F)c2)cc1)c1ccccc1F [Example 623]	–	> 10	–
O=C(Nc1ccc(NC(=S)NCCOc2ccccc2)cc1)c1ccccc1F [Example 625]	–	4 (≈ 9.77 µM)	–
O=C(Nc1ccc(NC(=S)NCCc2ccccc2F)cc1)c1ccccc1F [Example 721]	–	–	IC50 (ug/ml) HSV (HSV-1): >10 µg/mL
CC(C)(C)c1ccc(CNC(=S)Nc2ccc(NC(=O)c3ccccc3F)cc2)cc1 [Example 724]	–	–	IC50 (ug/ml) HSV (HSV-1): >10 µg/mL
Cc1cc(C)cc(CNC(=S)Nc2ccc(NC(=O)c3ccccc3F)cc2)c1 [Example 725]	–	–	IC50 (ug/ml) HSV (HSV-1): >10 µg/mL
CC(C)(NC(=S)Nc1ccc(NC(=O)c2ccccc2F)cc1)c1ccccc1 [Example 727]	–	–	IC50 (ug/ml) HSV (HSV-1): >10 µg/mL

Compound	IC50 (ug/ml) VZV (VZV strain Ellen) [µg/mL]	IC50 (VZV strain Ellen) [µg/mL]	other results
CC(NC(=S)Nc1ccc(NC(=O)c2ccccc2F)cc1)c1cccc(C(F)(F)F)c1 (stereo not shown) [Example 786]	–	> 7.5	IC50 (HSV-1): > 10 µg/mL
CC(NC(=S)Nc1ccc(NC(=O)c2ccccc2F)cc1)c1ccc(C(F)(F)F)cc1 (stereo not shown) [Example 787]	–	> 7.5	IC50 (HSV-1): > 10 µg/mL
CC(NC(=S)Nc1ccc(NC(=O)c2ccccc2F)cc1)c1cccc(C#N)c1 (stereo not shown) [Example 791]	–	7 (≈ 16.7 µM)	IC50 (HSV-1): > 10 µg/mL
CCCOc1ccc(NC(=S)Nc2ccc(NC(=O)c3ccccc3F)cc2)cc1Cl [Example 807]	0.9 (≈ 1.97 µM)	–	IC50 (ug/ml) HSV (HSV-1): >10 µg/mL
COc1ccc(NC(=S)Nc2ccc(NC(=O)c3ccccc3F)cc2)cc1I [Example 810]	–	> 7.5	–
CC(NC(=S)Nc1ccc(NC(=O)c2ccccc2I)cc1)c1ccc(F)cc1 (stereo not shown) [Example 812]	–	3.4 (≈ 6.55 µM)	–
COc1ccc(NC(=S)Nc2ccc(NC(=O)c3ccccc3)cc2)cc1Cl [Example 817, N-{4-[3-(3-Chloro-4-methoxy-phenyl)-thioureido]-phenyl}-benzamide]	–	12 (≈ 29.1 µM)	IC50 (HSV-1): 1 µg/mL (≈ 2.43 µM); inhibition at 10 µg/mL (VZV strain Ellen): 66%
COc1ccc(NC(=S)Nc2ccc(NC(=O)c3ccccc3OC)cc2)cc1Cl [Example 818, N-{4-[3-(3-Chloro-4-methoxy-phenyl)-thioureido]-phenyl}-2-methoxy-benzamide]	–	> 10	inhibition at 10 µg/mL (VZV strain Ellen): 32%
COc1ccc(NC(=S)Nc2ccc(NC(=O)c3cccc(F)c3)cc2)cc1Cl [Example 822, N-{4-[3-(3-Chloro-4-methoxy-phenyl)-thioureido]-phenyl}-3-fluoro-benzamide]	–	> 10	inhibition at 10 µg/mL (VZV strain Ellen): 0%
COc1ccc(NC(=S)Nc2ccc(NC(=O)c3ccc(F)cc3)cc2)cc1Cl [Example 823, N-{4-[3-(3-Chloro-4-methoxy-phenyl)-thioureido]-phenyl}-4-fluoro-benzamide]	–	> 10	inhibition at 10 µg/mL (VZV strain Ellen): 7%
COc1cc(OC)c(NC(=S)Nc2ccc(NC(=O)c3ccccc3C)cc2)cc1Br [Example 829, N-{4-[3-(5-Bromo-2,4-dimethoxy-phenyl)-thioureido]-phenyl}-2-methyl-benzamide]	–	> 15	inhibition at 10 µg/mL (VZV strain Ellen): 50%
CSc1ccc(NC(=S)Nc2ccc(NC(=O)c3c(F)cccc3F)cc2)cc1Cl [Example 848, N-{4-[3-(3-Chloro-4-methylsulfanyl-phenyl)-thioureido]-phenyl}-2,6-difluoro-benzamide]	–	1.3 (≈ 2.8 µM)	inhibition at 10 µg/mL (VZV strain Ellen): 101%
CC(C)(C)c1cccc(NC(=S)Nc2ccc(NC(=O)c3ccccc3F)cc2)c1 [Example 869, N-{4-[3-(3-tert-Butyl-phenyl)-thioureido]-phenyl}-2-fluoro-benzamide]	–	3 (≈ 7.12 µM)	inhibition at 10 µg/mL (VZV strain Ellen): 77%
O=C(Nc1ccc(NC(=S)Nc2ccc(C(F)(F)F)c(Cl)c2)cc1)c1ccccc1F [Example 911, N-{4-[3-(3-Chloro-4-trifluoromethyl-phenyl)-thioureido]-phenyl}-2-fluoro-benzamide]	–	> 10	inhibition at 10 µg/mL (VZV strain Ellen): 38%
O=C(Nc1ccc(NC(=S)Nc2ccc(I)c(Cl)c2)cc1)c1ccccc1F [Example 916, N-{4-[3-(3-Chloro-4-iodo-phenyl)-thioureido]-phenyl}-2-fluoro-benzamide]	–	> 10	inhibition at 10 µg/mL (VZV strain Ellen): 30%
CC(NC(=S)Nc1ccc(NC(=O)c2ccnc3ccccc23)cc1)c1ccc(F)cc1 (stereo not shown) [Example 989, Quinoline-4-carboxylic acid (4-{3-[1-(4-fluoro-phenyl)-ethyl]-thioureido}-phenyl)-amide]	–	3 (≈ 6.75 µM)	–
CC(NC(=S)Nc1ccc(NC(=O)c2ccc3ncccc3c2)cc1)c1ccc(F)cc1 (stereo not shown) [Example 990, Quinoline-6-carboxylic acid (4-{3-[1-(4-fluoro-phenyl)-ethyl]-thioureido}-phenyl)-amide]	–	3.5 (≈ 7.87 µM)	–
CC(NC(=S)Nc1ccc(NC(=O)c2ccccc2C#N)cc1)c1ccc(F)cc1 (stereo not shown) [Example 993, 2-Cyano-N-(4-{3-[1-(4-fluoro-phenyl)-ethyl]-thioureido}-phenyl)-benzamide]	–	2.7 (≈ 6.45 µM)	–
COc1cc(OCC(F)(F)F)ccc1NC(=S)Nc1ccc(NC(=O)c2ccccc2F)cc1 [Example 1006, 2-Fluoro-N-(4-{3-[2-methoxy-4-(2,2,2-trifluoro-ethoxy)-phenyl]-thioureido}-phenyl)-benzamide]	–	11 (≈ 22.3 µM)	–
CC(NC(=S)Nc1ccc(NC(=O)c2ccccc2F)cc1)c1ccc(C(F)(F)F)cc1F (stereo not shown) [Example 1106]	–	> 7.5	–
C[C@H](NC(=S)Nc1ccc(NC(=O)c2nccc3ccccc23)cc1)c1ccc(Cl)cc1 [Example 1109]	–	0.03 (≈ 0.0651 µM)	–
CC(NC(=S)Nc1ccc(NC(=O)c2nccc3ccccc23)cc1)c1ccc(F)cc1 (stereo not shown) [Example 1110]	0.05 (≈ 0.112 µM)	–	–
